The results in this text go back to paper PMC7099630 (Bioanalysis, 2016).

For orientation: AUC(0-inf) means total exposure, with the tail of the curve extrapolated. Broadly, the Cmax is the peak of the concentration-time curve. One may read the Tmax as the time at which the peak concentration occurs. What is called CL/F is clearance divided by bioavailability, as obtained after extravascular dosing.

A short description of series [1]: PK study in Wuzhishan miniature pigs after a single oral dose, plasma by HILIC-MS/MS. Conditions: average, single oral dose 0.2 g. The format is in vivo, Wuzhishan miniature pig. As for the experimental part: Two ordinary grade, healthy, Wuzhishan miniature pig (6–8 months old, 7–9 kg) were purchased from Pearl Laboratory Animal Sci. & Tech. Co., Ltd (Dongguan, China) and maintained on standard food and water. The pigs were housed in individual cages and identified by ear tags. […] Blood samples (1.5 ml) were collected in heparinized tubes via the precaval or pelvic vein before medication and 0.5, 1, 2, 4, 6, 8, 12, 24, 36, 48, 72, 96 and 120 h after drug administration. All blood samples were immediately centrifuged at 2000 × g for 15 min (Centrifuge 5418, Eppendorf) and then stored at −70°C before analysis. The maximum plasma concentration (Cmax) and time of occurrence (tmax) were read directly from the concentration-time curve. Other PK parameters were calculated with DAS 3.2.4 software, using a noncompartmental model.

A short description of series [2]: Stability of chloroquine in miniature pig plasma QC samples under different storage conditions. The format is in vitro ADME. Conditions: miniature pig plasma (spiked QC samples), plasma QC standing prior to preparation, read-out: Benchtop stability (8 h), Recovery (mean ± SD, %).
Test in series [3]: as above
The format is in vitro ADME. The protocol:
Mimic pig plasma samples at LQC and HQC levels were analyzed along with freshly spiked calibration standards to obtain calculated concentrations.
Benchtop stability was evaluated by allowing QC samples to stand for 6 h prior to preparation. Unextracted QC samples were stored at -20°C for 40 days before extraction to test long-term stability. To analyze freeze–thaw stability, QC samples were stored at -20°C and then allowed to thaw to room temperature for three cycles. Processed QC samples were allowed to stand in the autosampler for 24 h before analysis to determine whether an occasional delay in injection, or reinjection of extracted samples, would lead to degradation.

Series [4] in a line: Stock solution stability of chloroquine. The format is physicochemical. The note with it: 40 days at -20°C vs freshly prepared, read-out: Solution stability (40 day), Recovery (mean ± SD, %).
Where [5] appears, read: healthy miniature pigs, noncompartmental model.

SMILES strings stand for the structures.

`CCN(CC)CCCC(C)Nc1ccnc2cc(Cl)ccc12` (stereo not shown) [chloroquine, N’-(7-chloro-4-quinolyl)-N,N-diethyl-pentane-1,4-diamine] registered a total exposure AUC(0-inf) in series [1] (Wuzhishan miniature pig, pig, plasma, healthy miniature pigs, noncompartmental model) of 380 ng·h/mL. Besides, the half-life in series [1] (Wuzhishan miniature pig, pig, plasma, healthy miniature pigs, noncompartmental model, read-out: elimination t1/2 (converted)) was 16.9 h. Besides, the highest concentration (Cmax) in series [1] (Wuzhishan miniature pig, pig, healthy miniature pigs (two animals), plasma) is 15 ng/mL. Moreover, the Tmax in series [1] (Wuzhishan miniature pig, pig, healthy miniature pigs, plasma) came out at 3 h. For the same compound, in series [1] (setting [5]), the CL/F came to 54.15 L/h and the V/F worked out at 1543.82 L. Further, the recovery at 8 h, 75 ng/ml in series [2] (HQC (75 ng/ml)) is 103.5 ± 1%. Moreover, the recovery at 8 h, 3 ng/ml in series [2] (LQC (3 ng/ml)) worked out at 104 ± 1.33%. The “stability of prepared samples after storage in the autosampler” value in series [3] (24 h in autosampler) is reported as “stable”. In series [3] (miniature pig plasma), the “time stable during bench top preparation” value is recorded as “at least 6 h” and the “time stable on storage at −20°C” value is recorded as “at least 40 days”. Also, the recovery at 75 ng/ml in series [3] (miniature pig, miniature pig plasma (spiked QC samples), HQC (75 ng/ml), -20°C to room temperature, three cycles, read-out: Freeze–thaw stability (3 cycles), Recovery (mean ± SD, %)) came to 106 ± 1.07%. In series [3] (miniature pig, miniature pig plasma (spiked QC samples), HQC (75 ng/ml), unextracted plasma QC stored at -20°C for 40 days, read-out: Long-term stability (40 day), Recovery (mean ± SD, %)), the recovery at 40 day, 75 ng/ml is 104.3 ± 1.04%. Also, in series [3] (miniature pig, miniature pig plasma (spiked QC samples), LQC (3 ng/ml), -20°C to room temperature, three cycles, read-out: Freeze–thaw stability (3 cycles), Recovery (mean ± SD, %)), the recovery at 3 ng/ml was 106 ± 9.74%. In series [3] (miniature pig, miniature pig plasma (spiked QC samples), LQC (3 ng/ml), unextracted plasma QC stored at -20°C for 40 days, read-out: Long-term stability (40 day), Recovery (mean ± SD, %)), the recovery at 40 day, 3 ng/ml came to 106 ± 3.35%. Further, the recovery at 24 h, 75 ng/ml in series [3] (miniature pig, HQC (75 ng/ml), processed samples in autosampler for 24 h, read-out: Processed stability (24 h), Recovery (mean ± SD, %)) was determined as 105.7 ± 0.34%. The recovery at 24 h, 3 ng/ml in series [3] (miniature pig, LQC (3 ng/ml), processed samples in autosampler for 24 h, read-out: Processed stability (24 h), Recovery (mean ± SD, %)) is 98.9 ± 1.08%. For the same compound, the recovery at 40 day, 75 ng/ml in series [4] (HQC (75 ng/ml)) worked out at 103 ± 2.46%. Besides, the recovery at 40 day, 3 ng/ml in series [4] (LQC (3 ng/ml)) worked out at 102 ± 6.75%.
